Laboratory results: patent US8287911B2, “Endotoxin adsorbent for the prevention and treatment of autoimmune diseases” (Chondrex Inc., priority 2006, dated 2012)
Where “and” joins values, the source holds several entries; their conditions need not be identical. Equal values may be shown once. Read-outs that look alike come from different tables or passages of the source.

Assays:
[1] = Particle size distribution, microscopic method (Japanese Pharmacopoeia); format: physicochemical; settings: for 50% Particle Size: resins of Examples 1-7 and reference, method of Example 9
Method: The particle size of the endotoxin-adsorbent was determined based on the particle size distribution method. The particle distribution analysis was performed according to “The method for determining particle size distribution. Method 1: Microscopic method” in the second supplement of the general test procedures, section 65, Japanese Pharmacopoeia, 13th Issue. The 50% particle size (μm) was explained as the diameter of particles of the corresponding values of the accumulative volume of particles is 50%.
The particle size distribution was measured according to “Measurement of Particle Size Distribution. Method 1: Microscopic method” in the second supplement of the general test procedures, Section 65, Japanese Pharmacopoeia, 13th Issue. The microscope and camera used for this experiment was Nikon ECLIPSE E600 and Victor KY-F55B, respectively. The collected data was analyzed using Nano Hunter NS2K-Pro. The 50% particle size of RPMB was 213 μm, and the content of small particles not more than 5 μm in a diameter was 0%.

[2] = Endotoxin adsorption and elimination capacity (2), LPS-binding capacity from OD210 of supernatant; design: species or system E. coli O-111; settings: for Endotoxin-Binding capacity (LP5 mg/g*): converted to dry weight of LPS per gram resin; for Endotoxin-Binding Capacity: per gram resin, method of Example 11
Method: The LPS binding capacity of the endotoxin-adsorbent in a test tube was determined according to the method described in “endotoxin test procedures” in Japanese Pharmacopoeia, in addition to a simple assay method of LPS by measuring OD values, which was developed during this invention. The experimental procedures and results are shown in EXAMPLE 10 and 11 in detail.
The endotoxin-binding capacity of polymixin B conjugates was also studied. LPS (Sigma L4130) was dissolved in pyrogen-free water at 0.2 mg/mL, and 4 mL of this solution was added to a test tube containing 20.6 mg of RPMB-1, and incubated at 37° C. with stirring. The supernatant was collected every 30 minutes by centrifugation and the OD values at 210 nm was determined. The OD210 value was dropped from 1 to 0.6 within the first 30 minutes of incubation and remained unchanged afterwards. […] Therefore, it was assumed that 20.6 mg of LPS adsorbent added in the first test tube was saturated with LPS. Accordingly, an LPS adsorption capacity of RPMB-1 was calculated based on the OD value changes of LPS solution. Since the LPS preparation used in this experiment was not pure and contaminated by DNA and proteins, it was assumed that the final OD value of 0.4 reflected the OD value of such contaminants. Based on this assumption, it was calculated that 1 g of RPMB is capable of binding approximately 25.9 mg of LPS (Sigma L4130) using the following formula: (0.8 mg×0.4/0.6)/0.0206=25.9 mg Since the endotoxin unit of this LPS preparation is 1.1×10^6 EU/mg, it was calculated that 1 g of RPMB-1 is capable of binding 29×10^6 EU of endotoxin.
Polymixin B-conjugated resins prepared in Examples 1-7 were analyzed for their particle size distribution by the method described in Example 9 and assayed for the endotoxin-binding capacity by the method described in Example 11 to study the relationship between particle size and LPS-binding capacity. AffiPrep poplymixin B (BioRad, USA) was used as a reference.
The endotoxin-binding capacity of individual batches of endotoxin-adsorbents prepared by conjugating with 3 million units of polymixin B was compared and expressed as endotoxin units (EU) per gram weight of resin as well as LPS weight per gram resin. The weight of LPS was obtained by converting the EU values based on the EU value per mg of LPS preparation (Sigma L4130, LPS preparation from E. coli O-111, B4, by trichloroacetic acid extraction) used for this experiment.

[3] = format: binding, E. coli O-111; settings: for LPS Activity Remaining, 10 mm / LPS Activity Remaining, 20 mm / LPS Activity Remaining, Before: 1 mL LPS 5 μg/mL; for LPS Activity Remaining, 10 mm / LPS Activity Remaining, 20 mm: 37° C.; for LPS Activity Remaining, 10 mm: 10 minutes after adding resin; for LPS Activity Remaining, 20 mm: 20 minutes after adding resin; for LPS Activity Remaining, Before: supernatant before adding resin (baseline)
Method: Endotoxin was assayed by an end point colorimetric assay method using Endospecy-ES24S kit (Seikagaku Kogyo, Japan). Lipopolysaccharide (LPS) from E. coli O-111 (Sigma L4130) was dissolved in pyrogen-free water at 5 μg/mL. One mL of this LPS solution was mixed with 50 μg and 100 μg of RPMB-1, and 100 μg of polymixin B-unconjugated resin (control) and incubated at 37° C. with stirring. Endotoxin levels were determined in the supernatant before, 10 and 20 minutes after adding the resins.

[4] = system: autoantibody mediated, LPS-induced arthritis; experiment: Autoantibody mediated, LPS-induced arthritis model; format: in vivo, DBA/1JNCrj mice; settings: experiment 1, day 7; for Severity of Arthritis (score): average of 5 mice, maximum 16 per mouse; for Incidence of Arthritis: mice with arthritis/5
Text: The therapeutic effect of the endotoxin-adsorbent on autoimmune diseases can be determined in the mouse arthritis model as described in our previous invention, JP-A 2006-151914. Briefly, arthritis can be induced in 100% of mice by IP injection of enough amounts of anti-type II collagen monoclonal antibody cocktail (Chondrex Inc., Redmond, Wash., USA) within 3 days (Terato K et al. Induction of arthritis with monoclonal antibodies to collagen. J. Immunol. 148:2103-2108, 1992). By reducing the dose of the monoclonal antibody cocktail to 2 mg, all mice remained normal without developing arthritis. However, oral administration of 3 mg of LPS on 3 consecutive days from day 0, day 1, day 2 […] into these mice induced clinically apparent arthritis, which reached the peak on day 6-7. Furthermore, one group of mice was co-administered with indomethasin and ovoinhibitor, a protease-inhibitor purified from egg white. The combination of indomethasin and ovoinhibitor was used to increase the mucosal permeability of gastro-intestinal mucosa. In these mice, the effect of LPS was more significant, and more severe arthritis was induced by oral administration of a same dose of LPS. Using this arthritis model induced by a combination of monoclonal antibody and LPS, the therapeutic effect of the endotoxin-adsorbent can be determined. The benefit of this model is multifold: time of experimentation is short compared with an authentic collagen-induced arthritis model, the standard deviation of severity of arthritis among individual mice is much less, and the effect of the LPS-adsorbent is clearly determined.
DBA/1JNCrj mice (Japan Charles River) were divided into 5 groups (G1-G5, 5 mice per group). In order to increase the mucosal permeability, all mice received 40 μg of indomethasin (Sigma) and 2 mg of ovomucoid (Sigma) for 5 consecutive days from day −6 to −2 by the oral route. On day 0, all mice received an IV injection of 0.2 mL of arthritogenic monoclonal antibody cocktail (10 mg/mL). Endotoxin derived from E. coli O-111 (Phenol extracted LPS, Sigma) was dissolved in PBS at 7.5 mg/mL, and 0.2 mL of this solution was administered into G1-G4 mice by the oral route for 3 consecutive days from day 0 to 2. Endotoxin-adsorbent, RPMB-1, was suspended in distilled water at 100 mg/mL, and deaerated by a vacuum pump to keep the particles in uniform suspension by preventing the aggregation of the particles. The RPMB-1 suspension was administered to mice at doses of 0.125 mL (G2), 0.25 mL (G3) and 0.5 mL (G4) twice a day for 4 consecutive days from day 0 to 3 after LPS administration. G1 received 0.25 mL of water alone. Mice in G5, a positive control of arthritis, received IP injection of 0.1 mL of LPS solution (0.5 mg/mL in PBS) on day 3.
Severity of arthritis was scored by 5 grades, 0: normal without any swelling, 1: clinically apparent swelling of one digit, 2: moderate redness and swelling of more than 2 digits or moderate redness and swelling of the entire paw, 3: severe redness and swelling of the entire paws, and 4: maximum inflamed limb with involvement of multiple joints. The sum of the arthritis score (maximum 16 per mouse) of individual animals was calculated. The effect of the endotoxin-adsorbent was calculated based on the average score of 5 mice using the following equation: Suppression of arthritis(%)=(1−Average score of test group/Average score of control group)×100
Since the arthritis scores reached a maximum on day 7, the effect of the endotoxin-adsorbent was calculated using the scores on day 7. The suppression of arthritis by RPMB prepared in EXAMPLE 2 at 25 mg, 50 mg and 100 mg per mouse by oral administration is shown in Table 3.

[5] = system: autoantibody mediated, LPS-induced arthritis; experiment: Autoantibody mediated, LPS-induced arthritis model; format: in vivo, DBA/1JNCrj mice; settings: experiment 2; for Severity of Arthritis (score) / Incidence of Arthritis: 10 mg/mouse oral; for Severity of Arthritis (score): average of 5 mice, maximum 16 per mouse; for Incidence of Arthritis: mice with arthritis/5; for effect on development of arthritis (in words): dose of 10 mg per mouse

Substance | 50% Particle Size [1] [μm] | Endotoxin-Binding capacity (LP5 mg/g*) [2] [mg/g] | Endotoxin-Binding Capacity [2] | Severity of Arthritis (score) [5] [score] | Incidence of Arthritis [5] | effect on development of arthritis (in words) [5] | also measured
Epoxyacryl Resin-Polymixin B Conjugate [RPMB-1] | 32 | 26.5 | 29 × 10^6 EU/g | – | – | – | OD value of supernatant after adding fresh resin ([2]; 20.5 mg fresh resin added to the supernatant, reduced from 0.6): 0.4; OD210 value of supernatant ([2]; 20.6 mg resin in 4 mL LPS 0.2 mg/mL, 37° C., within first 30 minutes, dropped from 1): 0.6; endotoxin bound by 1 g of resin ([2]; per 1 g resin, calculated with 1.1×10^6 EU/mg LPS): 29×10^6 EU; LPS Activity Remaining, 10 mm ([3]; resin amount 50 μg): 2403 EU/mL; LPS Activity Remaining, 20 mm ([3]; resin amount 50 μg): 1207 EU/mL; LPS Activity Remaining, Before ([3]; resin amount 50 μg): 5632 EU/mL; LPS Activity Remaining, 10 mm ([3]; resin amount 100 μg): 1004 EU/mL; LPS Activity Remaining, 20 mm ([3]; resin amount 100 μg): 170 EU/mL; LPS Activity Remaining, Before ([3]; resin amount 100 μg): 5526 EU/mL; LPS adsorption (in words) ([3]; versus polymixin B-unconjugated control resin): specifically adsorbed; Severity of Arthritis (score) ([4]; 25 mg/mouse oral): 9 score and 6.4 ± 1.8 score; Incidence of Arthritis ([4]; 25 mg/mouse oral): 4 out of 5 and 4/5; Severity of Arthritis (score) ([4]; 50 mg/mouse oral): 2 score and 2 ± 2.8 score; Incidence of Arthritis ([4]; 50 mg/mouse oral): 2 out of 5 and 2/5; Severity of Arthritis (score) ([4]; 100 mg/mouse oral): 0 ± 0 score; Incidence of Arthritis ([4]; 100 mg/mouse oral): None of the five mice and 0/5
Epoxyacryl Resin-Polymixin B Conjugate [RPMB-2] | 32 | 105 | 120 × 10^6 EU/g | 0 ± 0 | 0/5 | suppressed the development of arthritis almost completely | –
Epoxyacryl Resin-Polymixin B Conjugate [RPMB] | 213 | 17.5 | 20 × 10^6 EU/g | – | – | – | Distribution of Particle Size: 10% Diameter ([1]; 1006 particles analyzed): 160 (μm); Distribution of Particle Size: 90% Diameter ([1]; 1006 particles analyzed): 266 (μm); Distribution of Particle Size: Average Diameter ([1]; 1006 particles analyzed): 197 (μm); content of small particles not more than 5 μm in a diameter ([1]; 1006 particles analyzed): 0%; LPS bound by 1 g of resin ([2]; per 1 g resin, calculated from OD value changes, (0.8 mg×0.4/0.6)/0.0206): approximately 25.9 mg
Weakly Acidic Cation-Exchange Resin-Polymixin B Conjugate [1/300] | 400 | 6.7 | 7.7 × 10^6 EU/g | – | – | – | –
Weakly Acidic Cation-Exchange Resin-Polymixin B Conjugate [1M/300] | 29 | 120 | 136.3 × 10^6 EU/g | 0 ± 0 | 0/5 | suppressed the development of arthritis almost completely | –
Weakly Acidic Cation-Exchange Resin-Polymixin B Conjugate [4/300] | 400 | 6.3 | 7.2 × 10^6 EU/g | – | – | – | –
Weakly Acidic Cation-Exchange Resin-Polymixin B Conjugate [4M/300] | 26 | 30 | 29.5 × 10^6 EU/g | 0.8 ± 1.8 | 1/5 | suppressed the development of arthritis almost completely | –
